Test results from the CheMixHub drug solubility set.

Experiment: xn = mol fraction of the nth substance listed, in the solute-free solvent

c1ccc2[nH]c(-c3cscn3)nc2c1 + CO + O
solubility (g/100 g solution)
Details	283.15 K	288.15 K	293.15 K	298.15 K	303.15 K	308.15 K	313.15 K	318.15 K	323.15 K
x2 = 0.05881	0.00229	0.00287	0.00369	0.00466	0.00574	0.00699	0.00862	0.0104	0.0128
x2 = 0.1233	0.0131	0.0159	0.0194	0.0238	0.0278	0.0335	0.0401	0.0473	0.0561
x2 = 0.1942	0.0339	0.0408	0.0481	0.0566	0.0663	0.0786	0.0909	0.105	0.122
x2 = 0.2727	0.0719	0.0844	0.101	0.119	0.139	0.161	0.187	0.216	0.246
x2 = 0.3599	0.131	0.154	0.181	0.206	0.242	0.278	0.317	0.364	0.412
x2 = 0.4576	0.21	0.243	0.283	0.328	0.368	0.419	0.477	0.541	0.616
x2 = 0.5675	0.329	0.373	0.425	0.486	0.554	0.62	0.697	0.779	0.874
x2 = 0.6923	0.478	0.542	0.614	0.69	0.779	0.87	0.967	1.07	1.19
x2 = 0.835	0.643	0.725	0.815	0.914	1.02	1.13	1.25	1.38	1.52

CN1CCN(C2=Nc3cc(Cl)ccc3Nc3ccccc32)CC1 + C1CCOC1 + Cc1ccccc1
solubility (g/100 g solution)
Details	x2 = 0.1243	x2 = 0.242	x2 = 0.3539	x2 = 0.4601	x2 = 0.5602	x2 = 0.6569	x2 = 0.749	x2 = 0.8361	x2 = 0.9197
293.15 K	3.93	5.65	8.04	9.98	13	15.3	17.5	20.9	23.9
298.15 K	4.3	6.76	8.83	11.7	14.2	16.5	20.5	22.2	25.6
303.15 K	5.04	7.34	9.84	13.1	15.8	18.8	21.9	25	28.1
308.15 K	6.11	8.39	11.2	14.4	17.5	20.6	24	26	29.8
313.15 K	7.2	9.63	12.2	16.4	19.5	22.7	25.9	29	31.9
318.15 K	8.19	10.7	14.6	18.1	21.4	24.9	27.9	30.5	33.7
323.15 K	8.82	12.2	15.9	20.1	23.6	27	29.6	33.1	36.6
